The subject of series [1] is HeLa cells expressing S. pneumoniae editing-defective isoleucyl-tRNA synthetase (IleRSTA). The experiment in a line: valine toxicity in transfected HeLa cells, cell death by propidium iodide staining (flow cytometry). Type of series: cell-based, human. To be noted: IleRSTA-expressing HeLa cells compared to wild type IleRS or GFP expressing HeLa cells; FIG. 2. How it is done: Cell death was measured by propidium iodide staining. Axis y represents the percentage of cell survival (abbreviated as “% C.S.”) and axis x represents the concentration of valine (mM).
For transient transfections, 20 μg of each DNA construct was added to 500 μl water containing 252 mM CaCl2. Then, 500 μl of 2×Hepes-buffered-saline buffer (280 mM NaCl, 10 mM KCl, 1.5 mM Na2HPO4, 50 mM HEPES, 12 mM dextrose, pH 7.1) was added to the DNA mixture drop by drop. 16 hours after adding this transfection mixture to the cells, the medium containing DNA was removed and new medium was added. After 24 hours, transfected cells were used for experimentation.
10 μg/ml propidium iodide was used for determination of cell viability in transiently GFP fusion proteins transfected HeLa cells. Stained cells were analyzed immediately using a Coulter Epics XL (Beckman Coulter) and analyzed using System II software.
To assess whether the expression S. pneumoniae mutated editing domain GFPIleRS has a toxic effect in a mammalian system in the presence of increasing concentrations of valine in the media, GFP, S. pneumoniae wild type (IleRS) and mutated editing domain (IleRSTA) were expressed in HeLa cells.
In general terms: Flow cytometry measures light scatter and fluorescence of single cells or particles in a stream.

The subject of series [2] is isoleucyl-tRNA synthetases (IleRS) from Gram-positive infectious pathogens. To be noted: cited from earlier work.
The conditions of series [3]: limits use to topical applications; cited from earlier work.

Structures are written as SMILES.

For the molecule `CC(C)[C@H](N)C(=O)O` [valine], the “sensitivity to cell death (% cell survival) with increasing concentrations of valine in the media” value in series [1] is reported as “higher sensitivity”.

Take `C/C(=C\C(=O)OCCCCCCCCC(=O)O)C[C@@H]1OC[C@H](C[C@@H]2O[C@H]2[C@@H](C)[C@H](C)O)[C@@H](O)[C@H]1O` [Pseudomonic acid]: the “selectivity for pathogen vs. mammalian IleRS” value in series [2] is given as roughly 8000 fold. Further, in series [3], the systemic bioavailability result was “lack of systemic bioavailability”.

The values are drawn from patent US8183006B2, “Screening method for identifying new aminoacyl-tRNA synthetase inhibitors” (Fundacio Privada Parc Cientific de Barcelona, priority 2006, dated 2012).
